Reference: ChEMBL document CHEMBL1139147, “Evaluation of fluorescently labeled xylopyranosides as probes for proteoglycan biosynthesis” (Bioorg Med Chem Lett, 2007)
Activity calls are given as the source filed them. No cut-off for these calls is given here.

Experiments:
[1] = Partition coefficient, log P assessed as retention time; assay type: physicochemical; conditions: octanol/water
[2] = tested on: T-24; assay: Suppression of proteoglycan production in T24 cells at 0.1 mM; assay type: functional, cell-based; conditions: Homo sapiens
[3] = tested on: T-24; assay: Suppression of glycosaminoglycan production in T24 cells at 0.1 mM; assay type: functional, cell-based; conditions: Homo sapiens

Activity [1] [min] | Compound | Activity [2] | Activity [3]
43.4 | Oc1cc2ccc(O[C@@H]3OC[C@@H](O)[C@H](O)[C@H]3O)cc2cc1COCc1c2ccccc2cc2ccccc12 | – | –
17.73 | Oc1ccc2cc(O[C@@H]3OC[C@@H](O)[C@H](O)[C@H]3O)ccc2c1 | – | –
38.48 | CN(C)c1cccc2c(S(=O)(=O)Oc3ccc4cc(O[C@@H]5OC[C@@H](O)[C@H](O)[C@H]5O)ccc4c3)cccc12 | Active | Active
